In patent US10201558B2, “Compositions of selenoorganic compounds and methods of use thereof” (Alltech, Inc., priority 2014, dated 2019):

Experiments:
Assay type in all cases: cell-based, human
APOE = test: QRT-PCR of APOE mRNA in IMR-32 cells (normal, control KD, FOXO4 KD); conditions: 24 hours
Procedure: (§1) IMR-32 cells were cultured on 12-well plates for 24 hours and then incubated with FOXO4 siRNA lentiviruses (SC-29650V, Santa Cruz) or control siRNA lentiviruses (sc-108080, Santa Cruz) in the presence of Polybrene (5 μg/ml, Santa Cruz) for 24 hours according to the manufacturer's protocol. These lentiviral siRNA-transfected cells were amplified in normal media for 3 days and then incubated with puromycin for 9-14 days to obtain the stable Control KD (stably transfected with the control siRNAs) and FOXO4KD (stably transfected with Foxo4 siRNAs) cells. These control and Foxo4 KD cells were subjected to cell survival, mitochondrial potential and RNA analysis.
(§2) Human IMR-32 cells were seeded on gelatinized 6-well (6.5×10^5 cells/well) or 24-well (1.3×10^5 cells/well) plates. Cells were treated with control (0 ppb) or various compounds for 6 hours or 24 hours. Total RNA from these cells was isolated using Trizol (Invitrogen) according to the manufacturer's protocol, and then incubated with DNase I to remove any potential contaminated genomic DNA. Then RNA samples were subjected to real-time PCR analysis using the Applied-Bioscience's RT kit and predesigned Taqman probes (Invitrogen), as described previously (Lan et al EMBO J 2003). The mRNA levels of UCP1, UCP2, UCP3, SLC25A27 (UCP4), SLC25A14 (UCP5), PSEN1, Nicastrin, GSK3B, MAPK11-14, PPARG, APOE, RCAN1, RCAN1.1, G6PC, INSR, IGF1R and FOXO4 were measured. Three to six samples were analyzed in each treatment group. Data were normalized by Actin B (ACTB) or Glyceraldehyde Phosphate Dehydrogenase (GAPDH) mRNA levels in each sample and are presented as mean±SEM of 3-6 samples.
To explore this possibility, IMR-32 cells were treated with 150 ppb Compound C, Compound D or Compound E (150 ppb) for 6 hours and 24 hours, and then subjected to Western blot and QRT-PCR analyses. […] Therefore, Compound C and Compound D are downregulators of PPARG in IMR-32 cells at both mRNA and protein levels. […]

INSR = test: QRT-PCR of INSR mRNA in IMR-32 cells; conditions: 75 ppb and 150 ppb, 24 hours
Procedure: as §2
To examine whether or not Compound C can regulate INSR/IGF1R signaling in IMR-32 cells, QRT-PCR analysis was performed to measure INSR and IGF1R mRNA levels. […] Mean±SEM, n=4. The * refers to a p value <0.05 when compared to the control group (0 ppb).

PEN2 = test: Western blot of PEN2 protein in IMR-32 cells; conditions: 150 ppb, 24 hours
Procedure: (§3) IMR-32 cells were seeded on 6-well plates and then treated with control and various compounds for 6 hours and 24 hours, as described above. After treatments, cells were rinsed with ice-cold PBS and lysed in ice-cold RIPA buffer containing complete proteinase and phosphatase inhibitors (Thermo-Fisher Scientific, Waltham, Mass.) on ice for 30 min Cell lysates were collected using a cell scraper and transfer pipette and then centrifuged at 12000×g for 30 min at 4° C. to remove the DNA pellet and obtain the protein extract. Protein levels in the supernatant of these cell lysates were determined using the Pierce Micro-BCA protein assay kit (Thermo Scientific-Piece Biotechnology, Rockford, Ill.) according to the manufacturer's protocol […]
(§4) Positive signals on the membrane blots were detected using Amersham's enhanced chemiluminescence (ECL) Western Blotting Prime Detection reagents (GE healthcare Lifescience, Pittsburgh, Pa.). Images of these luminescence signals on the membrane blots were captured using the LI-COR Odyssey Fc Image system (Lincoln, Nebr.). […] Protein band densities in the Western blots were determined using the Li—COR Image studio software or NIH ImageJ software, and then normalized by ACTB protein level in each sample. […]

MAPK12 = test: QRT-PCR of MAPK12 mRNA in control and FOXO4 KD IMR-32 cells; conditions: 24 hours
Procedure: as §1, §2
(§5) Normal control cells and FOXO4KD cells were incubated with two doses of Compound C for 24 hours, and subjected to QRT-PCR analysis of the MAPK11-14 genes. The relative mRNA expression of all four MAPK genes in normal control IMR-32 cells was assessed. […] Data in Compound C-treated control and FOXO4 KD cells were normalized by their levels in control and FOXO4KD cells, respectively. Mean±SEM of indicated number of samples in the bar graphs. […]

PPARG = test: Western blot of PPARG protein in IMR-32 cells; conditions: 150 ppb, 6 hours
Procedure: as §3, §4

MAPK14 = test: QRT-PCR of MAPK14 mRNA in control and FOXO4 KD IMR-32 cells; conditions: 24 hours
Procedure: as §1, §2, §5

[1] = FOXO4KD cells, 75 ppb and 150 ppb

C[Se]C[C@H]1O[C@@H](n2cnc3c(N)ncnc32)C(O)C1O (stereo in doubt) [Compound C, 5′-deoxy-5′-methylselenoadenosine]
APOE mRNA expression (APOE; [1]): not significantly altered
APOE mRNA levels (APOE; IMR-32 cells, 150 ppb): significantly decreased
APOE mRNA levels (APOE; control normal cells, 75 ppb and 150 ppb): attenuated
INSR mRNA expression levels (INSR): downregulated
PEN2 protein levels (PEN2): but not PEN2 proteins, were reduced
MAPK12 mRNA levels (MAPK12; [1]): none of the mRNA levels of the four MAPK genes in FOXO4KD cells were significantly altered
MAPK12 mRNA levels (MAPK12; control KD cells, 75 ppb): significant decrease
MAPK12 mRNA levels (MAPK12; control KD cells, 150 ppb): significantly decreased
PPARG protein expression (PPARG): markedly attenuated
MAPK14 mRNA levels (MAPK14; [1]): none of the mRNA levels of the four MAPK genes in FOXO4KD cells were significantly altered
MAPK14 mRNA levels (MAPK14; control KD cells, 75 ppb): trend towards decreased
MAPK14 mRNA levels (MAPK14; control KD cells, 150 ppb): significantly decreased
